Test results published in article PMC4855151 (Scientific Reports, 2016).

Molecular target: Cut2 (cutinase 2) (Pyricularia oryzae, UniProt G4MZV6)
Conditions: 12.5 nM Cut2, 0-8 mM substrate; assay buffer 25 mM NaH2PO4, pH 7.2

Chain of Cut2 (cutinase 2) (G4MZV6 19-214 limits assumed): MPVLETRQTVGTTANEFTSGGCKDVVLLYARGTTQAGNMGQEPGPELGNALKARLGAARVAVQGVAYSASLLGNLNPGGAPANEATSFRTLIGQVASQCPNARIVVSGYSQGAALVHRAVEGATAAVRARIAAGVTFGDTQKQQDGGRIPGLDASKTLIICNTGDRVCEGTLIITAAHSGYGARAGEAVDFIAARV

Q: For `CCCC(=O)Oc1ccc([N+](=O)[O-])cc1` [p-nitrophenyl butyrate], which kcat/Km is on record?
A: We determined kcat/Km for our recombinant Cut2 with p-nitrophenylbutyrate as substrate
